Laboratory results: patent US20250215011A1, “T-TYPE CALCIUM CHANNEL MODULATORS COMPRISING A DIAZASPIROHEPTANE CORE AND METHODS OF USE THEREOF” (Praxis Precision Medicines, Inc., priority 2022, published 2025)

The molecules below were run against Human Cav3.1 (Homo sapiens (Human), UniProt O43497) (assay: Cav3.1 automated patch clamp assay (SyncroPatch 384PE), HEK-293 natClytin/TASK1+Cav3.1 cell line). Conditions: Table 1, HEK-293 natClytin/TASK1+Cav3.1 cells.
Type: cell-based
Method: Inhibition of the T-type voltage gated calcium channel (Cav3.1) was evaluated using a HEK-293 natClytin/TASK1+Cav3.1 cell line. Currents were recorded using the SyncroPatch 384PE automated, patch clamp system. Pulse generation and data collection were performed with PatchController384 V1.3.0 and DataController384 V1.2.1 (Nanion Technologies). Off-line analysis was performed using Excel and Graphpad Prism (V 8.4.2) with complete data files uploaded to Dotmatics. The access resistance and apparent membrane capacitance were estimated using built-in protocols. Current was recorded in whole cell configuration from a population of cells. The cells were lifted, triturated, and resuspended at 800,000 cells/ml. The cells were allowed to recover in the cell hotel prior to experimentation. Currents were recorded at room temperature. The external solution contained the following (in mM): NaCl 80, NMDG 60, KCl 4, MgCl2 1, CaCl2 6, glucose 5 and HEPES 10 (pH=7.4, Osmolarity ˜300 mOsm). The extracellular solution was used as the wash, reference and compound delivery solution. The internal solution contained the following (in mM): CsF 110, CsCl 10, NaCl 10, EGTA 10, HEPES 10 (pH=7.2, Osmolarity ˜295 mOsm). The compound plate was created at 2× concentrated in the extracellular solution. The compound was diluted to 1:2 when added to the recording well. The amount of […] in the extracellular solution was held constant at the level used for the highest tested concentration. For the voltage clamp experiments on Cav3.1, data were sampled at 10 KHz. After establishment of the seal and the passage in the whole cell configuration, the cells were held at −120 mV. Cav3.1 current was evoked using a 100 ms step to −20 mV (to measure resting state block), followed by a 1600 ms step to −65 mV and a second 100 ms step to −20 mV (to measure voltage dependent block). The voltage protocol was applied every 15 seconds in the absence and in the presence of the compounds under investigation. […] Current amplitude (pA) was measured in the peak 1 and 2. The average of last 3 sweeps of each liquid period (vehicle, compound under investigation, full block) was calculated. Nickel-sensitive current was used to calculate the % of inhibition in the presence of the compound under investigation.

Human Cav3.1, sequence (O43497 whole entry): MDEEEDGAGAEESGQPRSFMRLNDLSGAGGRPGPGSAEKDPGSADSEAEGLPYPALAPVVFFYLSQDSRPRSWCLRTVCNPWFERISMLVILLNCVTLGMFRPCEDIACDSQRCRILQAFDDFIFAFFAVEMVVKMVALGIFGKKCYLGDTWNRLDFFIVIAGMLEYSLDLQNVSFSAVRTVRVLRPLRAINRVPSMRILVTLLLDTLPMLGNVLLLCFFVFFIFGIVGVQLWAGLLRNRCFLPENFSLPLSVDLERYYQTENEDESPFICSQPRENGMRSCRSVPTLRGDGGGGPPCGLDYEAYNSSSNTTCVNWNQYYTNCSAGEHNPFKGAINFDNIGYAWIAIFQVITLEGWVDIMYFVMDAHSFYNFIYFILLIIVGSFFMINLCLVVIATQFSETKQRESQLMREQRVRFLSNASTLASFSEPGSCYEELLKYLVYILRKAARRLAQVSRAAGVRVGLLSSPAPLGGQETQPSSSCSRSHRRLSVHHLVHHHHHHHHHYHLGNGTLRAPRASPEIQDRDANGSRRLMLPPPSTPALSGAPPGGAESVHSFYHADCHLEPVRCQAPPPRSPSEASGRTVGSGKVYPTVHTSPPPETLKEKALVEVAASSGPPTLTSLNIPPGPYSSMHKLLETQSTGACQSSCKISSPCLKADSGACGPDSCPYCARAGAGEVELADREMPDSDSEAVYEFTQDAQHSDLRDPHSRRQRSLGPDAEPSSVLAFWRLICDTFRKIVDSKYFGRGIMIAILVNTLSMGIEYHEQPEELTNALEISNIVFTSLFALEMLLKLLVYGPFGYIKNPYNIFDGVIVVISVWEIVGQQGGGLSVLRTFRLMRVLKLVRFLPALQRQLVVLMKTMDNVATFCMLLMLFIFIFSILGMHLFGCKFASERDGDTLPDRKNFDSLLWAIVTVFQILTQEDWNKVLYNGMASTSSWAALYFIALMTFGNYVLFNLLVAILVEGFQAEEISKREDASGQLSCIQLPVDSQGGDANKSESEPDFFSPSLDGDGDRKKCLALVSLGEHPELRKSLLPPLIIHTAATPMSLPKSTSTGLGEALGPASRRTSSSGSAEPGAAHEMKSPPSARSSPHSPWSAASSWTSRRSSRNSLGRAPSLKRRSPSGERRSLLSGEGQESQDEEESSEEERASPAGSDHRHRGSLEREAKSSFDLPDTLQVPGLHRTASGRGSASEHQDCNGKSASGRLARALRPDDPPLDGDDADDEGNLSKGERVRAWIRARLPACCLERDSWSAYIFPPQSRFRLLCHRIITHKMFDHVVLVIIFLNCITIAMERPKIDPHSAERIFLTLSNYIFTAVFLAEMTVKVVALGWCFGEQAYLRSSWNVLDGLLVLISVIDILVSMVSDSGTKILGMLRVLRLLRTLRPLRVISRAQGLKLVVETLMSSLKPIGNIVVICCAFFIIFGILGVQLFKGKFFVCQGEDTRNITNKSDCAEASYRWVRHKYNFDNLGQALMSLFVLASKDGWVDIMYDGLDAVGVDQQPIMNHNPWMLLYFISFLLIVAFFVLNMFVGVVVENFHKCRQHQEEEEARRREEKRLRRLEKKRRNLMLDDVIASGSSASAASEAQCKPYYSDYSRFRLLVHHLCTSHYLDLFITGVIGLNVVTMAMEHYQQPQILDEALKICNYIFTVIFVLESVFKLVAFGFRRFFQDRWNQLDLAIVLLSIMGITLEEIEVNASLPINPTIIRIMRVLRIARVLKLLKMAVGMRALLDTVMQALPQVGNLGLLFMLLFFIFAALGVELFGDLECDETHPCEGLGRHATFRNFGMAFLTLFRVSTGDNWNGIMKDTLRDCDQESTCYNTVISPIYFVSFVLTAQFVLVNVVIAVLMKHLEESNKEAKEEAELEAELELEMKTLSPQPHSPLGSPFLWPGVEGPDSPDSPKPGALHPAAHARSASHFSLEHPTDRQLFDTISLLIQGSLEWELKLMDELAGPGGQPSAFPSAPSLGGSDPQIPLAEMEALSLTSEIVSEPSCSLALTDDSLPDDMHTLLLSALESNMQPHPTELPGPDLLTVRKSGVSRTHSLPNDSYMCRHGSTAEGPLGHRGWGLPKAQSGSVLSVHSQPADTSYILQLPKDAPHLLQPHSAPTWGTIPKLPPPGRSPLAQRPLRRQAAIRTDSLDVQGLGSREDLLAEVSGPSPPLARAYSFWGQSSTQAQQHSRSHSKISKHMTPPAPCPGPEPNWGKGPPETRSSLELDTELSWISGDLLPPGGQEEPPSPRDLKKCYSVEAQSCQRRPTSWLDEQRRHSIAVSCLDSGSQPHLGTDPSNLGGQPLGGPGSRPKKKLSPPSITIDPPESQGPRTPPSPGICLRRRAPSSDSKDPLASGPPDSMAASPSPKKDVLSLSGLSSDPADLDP

Row | SMILES | IC50 [µM]
1 | CC(C)(C)NC(=O)CN1CC2(CN(CC(=O)Nc3cc(Cl)cc(Cl)c3)C2)C1 [Example 1, N-(tert-butyl)-2-(6-(2-((3,5-dichlorophenyl)amino)-2-oxoethyl)-2,6-diazaspiro[3.3]heptan-2-yl)acetamide] | < 1
2 | COc1cc(F)cc(NC(=O)CN2CC3(C2)CN(CC(=O)NC(C)(C)C)C3)c1 [Example 2] | 1 to 10
3 | CC(C)(C)NC(=O)CN1CC2(CN(CC(=O)Nc3cc(F)cc(C(F)F)c3)C2)C1 [Example 3] | 1 to 10
4 | Cc1cc(F)cc(NC(=O)CN2CC3(C2)CN(CC(=O)NC(C)(C)C)C3)c1 [Example 4] | 1 to 10
5 | CC(C)(C)NC(=O)CN1CC2(CN(CC(=O)Nc3ccc(F)c(Cl)c3)C2)C1 [Example 5] | 1 to 10
6 | CC(C)(C)NC(=O)CN1CC2(CN(CC(=O)Nc3cccc(Cl)c3)C2)C1 [Example 6] | 1 to 10
7 | Cc1cc(NC(=O)CN2CC3(C2)CN(CC(=O)NC(C)(C)C)C3)nn1-c1ccccc1 [Example 7] | ≥ 10
8 | CC(C)(C)NC(=O)CN1CC2(CN(CC(=O)Nc3cccc(Cl)c3F)C2)C1 [Example 8] | ≥ 10

Same assay, conditions: Table 2, HEK-293 natClytin/TASK1+Cav3.1 cells

Row | SMILES | IC50 [µM]
9 | CC(C)(C)NC(=O)CN1CC2(C1)CN(Cc1nc3cc(F)cc(Cl)c3[nH]1)C2 [Example 9, N-(tert-butyl)-2-(6-((7-chloro-5-fluoro-1H-benzo[d]imidazol-2-yl)methyl)-2,6-diazaspiro[3.3]heptan-2-yl)acetamide] | < 1
10 | CCC(C)(C)NC(=O)CN1CC2(CN(CC(=O)Nc3cc(F)cc(Cl)c3)C2)C1 [Example 10, N-(3-chloro-5-fluoro-phenyl)-2-[2-[2-(1,1-dimethylpropylamino)-2-oxo-ethyl]-2,6-diazaspiro[3.3]heptan-6-yl]acetamide] | < 1
11 | CC(C)(C)NC(=O)CN1CC2(CN(CC(=O)Nc3cc(F)cc(Cl)c3)C2)C1 [Example 11] | < 1
12 | CC(C)(C)NC(=O)CN1CC2(C1)CN(CC(=O)NC13CC4CC(CC(C4)C1)C3)C2 [Example 12] | 1 to 10
13 | CC(C)(C)c1nc(CN2CC3(CN(CC(=O)Nc4cc(F)cc(Cl)c4)C3)C2)co1 [Example 13] | < 1
14 | CC1(NC(=O)CN2CC3(CN(CC(=O)Nc4cc(F)cc(Cl)c4)C3)C2)CCC1 [Example 14] | < 1
15 | O=C(CN1CC2(C1)CN(Cc1coc(-c3ccccc3)n1)C2)Nc1cc(F)cc(Cl)c1 [Example 15] | < 1
16 | O=C(CN1CC2(C1)CN(CC(=O)NC1CCCC1)C2)Nc1cc(F)cc(Cl)c1 [Example 16] | 1 to 10
17 | CC(C)(NC(=O)CN1CC2(CN(CC(=O)Nc3cc(F)cc(Cl)c3)C2)C1)C(F)(F)F [Example 17] | 1 to 10
18 | O=C(CN1CC2(C1)CN(Cc1nc3ccccc3[nH]1)C2)Nc1cc(F)cc(Cl)c1 [Example 18] | < 1
19 | CC(C)(C)c1coc(CN2CC3(CN(CC(=O)Nc4cc(F)cc(Cl)c4)C3)C2)n1 [Example 19] | 1 to 10
20 | O=C(CN1CC2(CN(CCC3CCCC3)C2)C1)Nc1cc(F)cc(Cl)c1 [Example 20] | < 1
21 | CC(C)(C)CCN1CC2(C1)CN(CC(=O)Nc1cc(F)cc(Cl)c1)C2 [Example 21] | < 1
22 | Cc1nc(CN2CC3(CN(CC(=O)Nc4cc(F)cc(Cl)c4)C3)C2)co1 [Example 22] | 1 to 10
23 | O=C(CN1CC2(C1)CN(Cc1cnc(-c3ccccc3)[nH]1)C2)Nc1cc(F)cc(Cl)c1 [Example 23] | < 1
24 | COc1cccc(CN2CC3(CN(CC(=O)Nc4cc(F)cc(Cl)c4)C3)C2)c1 [Example 24] | 1 to 10
25 | O=C(CN1CC2(C1)CN(Cc1cccc(Cl)c1)C2)Nc1cc(F)cc(Cl)c1 [Example 25] | < 1

Row | SMILES | IC50 [µM]
26 | O=C(CN1CC2(CN(CCC3CCC(F)(F)CC3)C2)C1)Nc1cc(F)cc(Cl)c1 [Example 26] | < 1
27 | O=C(CN1CC2(C1)CN(Cc1cccc(C(F)F)c1)C2)Nc1cc(F)cc(Cl)c1 [Example 27] | < 1
28 | O=C(CN1CC2(C1)CN(Cc1nc(-c3ccccc3)co1)C2)Nc1cc(F)cc(Cl)c1 [Example 28] | 1 to 10
29 | CC(C)(C)c1ncc(CN2CC3(CN(CC(=O)Nc4cc(F)cc(Cl)c4)C3)C2)[nH]1 [Example 29] | 1 to 10
30 | Cc1coc(CN2CC3(CN(CC(=O)Nc4cc(F)cc(Cl)c4)C3)C2)n1 [Example 30] | 1 to 10
31 | CC(C)(NC(=O)CN1CC2(C1)CN(Cc1nc3c(Cl)cc(F)cc3[nH]1)C2)C(F)(F)F [Example 31] | < 1
32 | CCC(C)(C)NC(=O)CN1CC2(C1)CN(Cc1nc3c(Cl)cc(F)cc3[nH]1)C2 [Example 32] | < 1
33 | CC(C)(C)CCN1CC2(C1)CN(Cc1nc3c(Cl)cc(F)cc3[nH]1)C2 [Example 33] | < 1
34 | Fc1cc(Cl)c2nc(CN3CC4(CN(CCC5CCCC5)C4)C3)[nH]c2c1 [Example 34] | < 1
35 | CC(C)(C)CCCN1CC2(C1)CN(Cc1nc3c(Cl)cc(F)cc3[nH]1)C2 [Example 35] | < 1
36 | Fc1cc(Cl)c2nc(CN3CC4(C3)CN(CC3CCC(F)(F)CC3)C4)[nH]c2c1 [Example 36] | < 1
37 | Cc1cccc2[nH]c(CN3CC4(CN(CC(=O)NC(C)(C)C)C4)C3)nc12 [Example 37] | 1 to 10
38 | Cc1cc(F)cc2[nH]c(CN3CC4(CN(CC(=O)NC(C)(C)C)C4)C3)nc12 [Example 38] | 1 to 10
39 | CC(C)(C)NC(=O)CN1CC2(C1)CN(Cc1nc3c(Cl)cc(Cl)cc3[nH]1)C2 [Example 39] | < 1
40 | CC(C)(C)NC(=O)CN1CC2(C1)CN(Cc1nc3c(F)cc(OC(F)F)cc3[nH]1)C2 [Example 40] | 1 to 10
41 | CC(C)(C)NC(=O)CN1CC2(CN(CC(=O)Nc3cc(F)cc(OC(F)F)c3)C2)C1 [Example 41] | 1 to 10
42 | CC(C)(C)NC(=O)CN1CC2(C1)CN(C(=O)Nc1cc(F)cc(Cl)c1)C2 [Example 43] | < 1
